Data set [1] deals with glucosidases. Put plainly: glycan analysis of serum: tri-glucosylated glycans (Glu3). The format is in vivo, woodchuck. On the procedure: Sample preparation for glycan analysis was performed essentially as described (27). HPLC separation was performed using the Waters Alliance HPLC system with a Waters fluorescence detector, and quantified using the Millenium Chromatography Manager (Waters Corporation, Milford, Mass.). Tri-glucosylated structures were identified by comparison to known standards (27, 28).
In vivo, levels of circulating glycoproteins with N-glycans bearing three terminal glucose residues reflect the extent of glucosidase inhibition (11). […] Note that BuCas-treated animals that were negative for tri-glucosylated glycans at the 10-week time point were positive at one or more other time points (data not shown). No tri-glucosylated glycans were detected in any drug-naïve animals (Table 2).

A short description of data set [2]: observation of woodchucks for drug-related toxicity. The format is in vivo, woodchuck. The conditions noted are these: 100 mg/kg orally, weighed bi-weekly, observed daily.

SMILES strings stand for the structures.

Consider `CCCC(=O)O[C@H]1CN2CC[C@H](O)[C@@H]2[C@@H](O)[C@H]1O` [BuCas, 6-O-butanoyl castanospermine], for which the “glycan processing (tri-glucosylated glycans in sera), in words” value in data set [1] (sera of treated woodchucks) was “impaired glycan processing”. Further, the “Glu3, % (tri-glucosylated glycans in serum)” value in data set [1] (week 10) was “.49 (0-.90) %”. Further, in data set [2], the drug-related toxicity entry is on record as “no evidence of drug-related toxicity was seen”.

Source of the values: patent US20160051665A1, “INDUCTION OF IMMUNE RESPONSE” (priority 2010, published 2016).
